Data from PubChem BioAssay AID248 (DTP/NCI, 2004).
“And” between values parts separate entries of the source, which are not always exact repeats. Equal values may be shown once. Toxic doses and inconclusive results are not listed.

System: L1210 leukemia ip in BDF1 mice, survival T/C
Assay: NCI In Vivo Anticancer Drug Screen. Data for tumor model L1210 Leukemia (intraperitoneal) in B6D2F1 (BDF1) mice
Settings: endpoint: mean survival time, higher = longer survival
Method in brief: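 Tumor cells were implanted, animals were treated, and survival was followed. The result divides the treated measurement by the vehicle-control measurement.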

[1] = dose: 100.0 mg/kg/injection, schedule: Q04DX003 (ip), vehicle: saline with Tween-80
[2] = dose: 200.0 mg/kg/injection, schedule: Q04DX003 (ip), vehicle: saline with Tween-80
[3] = dose: 400.0 mg/kg/injection, schedule: Q04DX003 (ip), vehicle: saline with Tween-80
[4] = dose: 100.0 mg/kg/injection, schedule: Q01DX001 (ip), vehicle: saline
[5] = dose: 200.0 mg/kg/injection, schedule: Q01DX001 (ip), vehicle: saline
[6] = dose: 400.0 mg/kg/injection, schedule: Q01DX001 (ip), vehicle: saline
[7] = dose: 400.0 mg/kg/injection, schedule: Q01DX009 (ip), vehicle: saline with Tween-80
[8] = dose: 50.0 mg/kg/injection, schedule: Q01DX009 (ip), vehicle: saline
[9] = dose: 100.0 mg/kg/injection, schedule: Q01DX009 (ip), vehicle: saline
[10] = dose: 100.0 mg/kg/injection, schedule: Q04DX003 (ip), vehicle: saline
[11] = dose: 25.0 mg/kg/injection, schedule: Q01DX009 (ip), vehicle: saline

With `Cc1ccc2[c](c1)[Sn]([c]1ccccc1)([c]1ccccc1)[c]1cc(C)ccc1N2C` the T/C (dose: 100.0 mg/kg/injection, schedule: Q01DX001 (ip), vehicle: steriod suspending solution) was 96 % of control, the T/C (dose: 200.0 mg/kg/injection, schedule: Q01DX001 (ip), vehicle: steriod suspending solution) was 94 % of control and the T/C (dose: 400.0 mg/kg/injection, schedule: Q01DX001 (ip), vehicle: steriod suspending solution) was 96 % of control.

`O=C(O)C1C2C=CC(C2)C1C(=O)Nc1ccccc1` (stereo not drawn) was tested, and the T/C [1] was 106 % of control, the T/C [2] was 96 % of control and the T/C [3] was 101 % of control.

In the case of `CC([CH2][Hg][Cl])c1ccccc1` (stereo not drawn), the T/C (dose: 3.13 mg/kg/injection, schedule: Q01DX009 (ip), vehicle: saline with Tween-80) is reported as 95 % of control, the T/C (dose: 6.25 mg/kg/injection, schedule: Q01DX009 (ip), vehicle: saline with Tween-80) is reported as 92 % of control and the T/C (dose: 6.25 mg/kg/injection, schedule: Q04DX003 (ip), vehicle: Klucel (hydroxypropylcellulose) (HPC)) is reported as 101 % of control. For the same compound, the T/C (dose: 12.5 mg/kg/injection, schedule: Q01DX009 (ip), vehicle: saline with Tween-80) was 90 % of control and the T/C (dose: 12.5 mg/kg/injection, schedule: Q04DX003 (ip), vehicle: Klucel (hydroxypropylcellulose) (HPC)) was 119 % of control.

With `O=C(c1ccc(F)cc1)C(F)(F)F` the T/C (dose: 100.0 mg/kg/injection, schedule: Q01DX001 (ip), vehicle: Klucel (hydroxypropylcellulose) (HPC)) was 95 % of control and 101 % of control, the T/C (dose: 100.0 mg/kg/injection, schedule: Q04DX003 (ip), vehicle: other) was 104 % of control and the T/C (dose: 200.0 mg/kg/injection, schedule: Q01DX001 (ip), vehicle: Klucel (hydroxypropylcellulose) (HPC)) was 103 % of control. The T/C (dose: 200.0 mg/kg/injection, schedule: Q04DX003 (ip), vehicle: other) was 108 % of control, the T/C (dose: 400.0 mg/kg/injection, schedule: Q01DX001 (ip), vehicle: Klucel (hydroxypropylcellulose) (HPC)) was 95 % of control and 101 % of control and the T/C (dose: 400.0 mg/kg/injection, schedule: Q04DX003 (ip), vehicle: other) was 94 % of control.

In the case of `CC(C)(c1ccccc1)C(C(=O)O)C(=O)O`, the T/C (dose: 75.0 mg/kg/injection, schedule: Q01DX001 (ip), vehicle: saline) is reported as 98 % of control, the T/C (dose: 150.0 mg/kg/injection, schedule: Q01DX001 (ip), vehicle: saline) is reported as 98 % of control and the T/C (dose: 300.0 mg/kg/injection, schedule: Q01DX001 (ip), vehicle: saline) is reported as 102 % of control.

With `CN(N)c1ncnc2c1ncn2C1OC(CO)C(O)C1O` (stereo not drawn) the T/C [1] was 114 % of control, the T/C [2] was 106 % of control and the T/C [3] was 95 % of control.

For `OCC(O)C(O)C(O)C(O)CNCC(O)C(O)C(O)C(O)CO` (stereo not drawn), the T/C (dose: 100.0 mg/kg/injection, schedule: Q04DX002 (ip), vehicle: saline) was 98 % of control and 91 % of control and 88 % of control, the T/C (dose: 200.0 mg/kg/injection, schedule: Q04DX002 (ip), vehicle: saline) was 91 % of control and 100 % of control and the T/C (dose: 400.0 mg/kg/injection, schedule: Q04DX002 (ip), vehicle: saline) was 91 % of control and 107 % of control and 95 % of control.

`CC1=CC=C(C(=O)O)C1` was tested, and the T/C (dose: 100.0 mg/kg/injection, schedule: Q01DX009 (ip), vehicle: Klucel (hydroxypropylcellulose) (HPC)) was 90 % of control, the T/C (dose: 200.0 mg/kg/injection, schedule: Q01DX009 (ip), vehicle: Klucel (hydroxypropylcellulose) (HPC)) was 100 % of control and the T/C (dose: 400.0 mg/kg/injection, schedule: Q01DX009 (ip), vehicle: Klucel (hydroxypropylcellulose) (HPC)) was 92 % of control.

For `CCOC(=O)c1cc([N+](=O)[O-])ccc1N=Nc1cc(OC)c(N)cc1OC`, the T/C (dose: 100.0 mg/kg/injection, schedule: Q01DX001 (ip), vehicle: other) was 111 % of control, the T/C (dose: 200.0 mg/kg/injection, schedule: Q01DX001 (ip), vehicle: other) was 103 % of control and the T/C (dose: 400.0 mg/kg/injection, schedule: Q01DX001 (ip), vehicle: other) was 103 % of control.

For `CCCCCCCCCCCCOc1ccc(C=O)cc1OC`, the T/C (dose: 100.0 mg/kg/injection, schedule: Q04DX003 (ip), vehicle: Klucel (hydroxypropylcellulose) (HPC)) was 95 % of control, the T/C (dose: 200.0 mg/kg/injection, schedule: Q04DX003 (ip), vehicle: Klucel (hydroxypropylcellulose) (HPC)) was 98 % of control and the T/C (dose: 400.0 mg/kg/injection, schedule: Q04DX003 (ip), vehicle: Klucel (hydroxypropylcellulose) (HPC)) was 106 % of control.

With `CC(C)(CO)c1ccccc1` the T/C [4] was 104 % of control, the T/C [5] was 104 % of control and the T/C [6] was 107 % of control.

In the case of `CCCCCC(C)O[Si](C)c1cccc(C)c1` (stereo not drawn), the T/C [1] is reported as 107 % of control, the T/C [2] is reported as 98 % of control and the T/C [3] is reported as 102 % of control.

`C=CCc1ccc(OC(=O)Nc2ccc(SC)cc2)c(OC)c1` was tested, and the T/C (dose: 50.0 mg/kg/injection, schedule: Q01DX009 (ip), vehicle: saline with Tween-80) was 95 % of control and 87 % of control, the T/C (dose: 100.0 mg/kg/injection, schedule: Q01DX001 (ip), vehicle: saline with Tween-80) was 101 % of control and the T/C (dose: 100.0 mg/kg/injection, schedule: Q04DX002 (ip), vehicle: saline with Tween-80) was 90 % of control and 91 % of control. For the same compound, the T/C [1] was 94 % of control, the T/C (dose: 200.0 mg/kg/injection, schedule: Q01DX001 (ip), vehicle: saline with Tween-80) was 98 % of control and the T/C (dose: 200.0 mg/kg/injection, schedule: Q04DX002 (ip), vehicle: saline with Tween-80) was 93 % of control and 100 % of control. For the same compound, the T/C [2] was 91 % of control, the T/C (dose: 400.0 mg/kg/injection, schedule: Q01DX001 (ip), vehicle: saline with Tween-80) was 97 % of control and the T/C [7] was 99 % of control and 89 % of control. For the same compound, the T/C (dose: 400.0 mg/kg/injection, schedule: Q04DX002 (ip), vehicle: saline with Tween-80) was 94 % of control and 88 % of control and the T/C [3] was 96 % of control.

In the case of `CCCCCCC(=O)C1C(c2ccc(N(C)C)cc2)CC(=O)C(CCCCC)C1c1ccc(N(C)C)cc1` (stereo not drawn), the T/C (dose: 100.0 mg/kg/injection, schedule: Q01DX009 (ip), vehicle: saline with Tween-80) is reported as 86 % of control, the T/C [1] is reported as 89 % of control and the T/C (dose: 200.0 mg/kg/injection, schedule: Q01DX009 (ip), vehicle: saline with Tween-80) is reported as 95 % of control. The T/C [2] was 90 % of control, the T/C [7] was 95 % of control and the T/C [3] was 92 % of control.

In the case of `CC1(C(=O)O)NCCS1` (stereo not drawn), the T/C (dose: 100.0 mg/kg/injection, schedule: Q01DX001 (ip), vehicle: carboxymethylcellulose (CMC)) is reported as 95 % of control, the T/C (dose: 200.0 mg/kg/injection, schedule: Q01DX001 (ip), vehicle: carboxymethylcellulose (CMC)) is reported as 90 % of control and the T/C (dose: 400.0 mg/kg/injection, schedule: Q01DX001 (ip), vehicle: carboxymethylcellulose (CMC)) is reported as 90 % of control.

With `CC(C)(C)OC(=O)NCC(=O)O` the T/C [8] was 93 % of control, the T/C (dose: 75.0 mg/kg/injection, schedule: Q01DX001 (ip), vehicle: acetone) was 93 % of control and the T/C [9] was 96 % of control. For the same compound, the T/C [10] was 97 % of control, the T/C (dose: 150.0 mg/kg/injection, schedule: Q01DX001 (ip), vehicle: acetone) was 99 % of control and the T/C (dose: 200.0 mg/kg/injection, schedule: Q01DX009 (ip), vehicle: saline) was 93 % of control. The T/C (dose: 200.0 mg/kg/injection, schedule: Q04DX003 (ip), vehicle: saline) was 106 % of control and the T/C (dose: 300.0 mg/kg/injection, schedule: Q01DX001 (ip), vehicle: acetone) was 103 % of control.

With `CC1(c2cccs2)C(=O)N(Cl)C(=O)N1Cl` (stereo not drawn) the T/C [11] was 110 % of control, the T/C [8] was 106 % of control and the T/C [9] was 104 % of control. For the same compound, the T/C [10] was 96 % of control.

`CN(C)/N=N/c1ncn[nH]1` was tested, and the T/C (dose: 3.0 mg/kg/injection, schedule: Q01DX009 (ip), vehicle: saline) was 117 % of control, the T/C (dose: 6.0 mg/kg/injection, schedule: Q01DX009 (ip), vehicle: saline) was 114 % of control and the T/C (dose: 12.5 mg/kg/injection, schedule: Q01DX001 (ip), vehicle: saline) was 104 % of control. The T/C (dose: 12.5 mg/kg/injection, schedule: Q01DX009 (ip), vehicle: saline) was 151 % of control, the T/C (dose: 12.5 mg/kg/injection, schedule: Q04DX003 (ip), vehicle: saline) was 120 % of control and the T/C (dose: 22.0 mg/kg/injection, schedule: Q04DX003 (ip), vehicle: saline) was 123 % of control. The T/C (dose: 25.0 mg/kg/injection, schedule: Q01DX001 (ip), vehicle: saline) was 108 % of control, the T/C [11] was 203 % of control and the T/C (dose: 50.0 mg/kg/injection, schedule: Q01DX001 (ip), vehicle: saline) was 116 % of control. The T/C [8] was 115 % of control, the T/C [5] was 155 % of control and the T/C [6] was 91 % of control.

With `CCOC(C[N+](C)(C)CCC[N+](C)(C)CC(OCC)OCC)OCC` the T/C [4] was 111 % of control, the T/C [5] was 96 % of control and the T/C [6] was 111 % of control.
